Source: patent publication US3949090A, “Methods and compositions for improving feed efficiency in ruminants using dithiooxamide” (SmithKline Corporation, priority 1974, dated 1976)
Where two headings read alike, the source gives them in different places.

How the values were obtained:
[1] = test system: Microbial Deaminase (strained rumen fluid); test: In vitro microbial deaminase inhibition (rumen fluid, alfalfa hay, grain mixture; 4 hours); format: cell-based; details: for MDI (%): 240 min
Protocol: (§1) The in vitro fermentation system contained 75 ml. strained rumen fluid, 200 mg, alfalfa hay, 800 mg. of a crude protein grain mixture, 0.8 to 1.6 mM of each of 10 essential amino acids (threonine, valine, methionine, isoleucine, leucine, phelylalanine, tryptophan, lysine and arginine), and 0 to 50 ppm dithiooxamide. Flasks were incubated for 4 hours with effects upon amino acid deamination assessed as described for the previous system. Using standard chromatographic techniques, effects upon methanogenesis and upon the pattern of volatile fatty acid production were determined.
(§2) ^1 In vitro fermentation system contained 75 ml. strained rumen fluid
(§3) 200 mg. alfalfa hay, 800 mg. grain mixture (16% crude protein) and 1.6 mM
(§4) of each of ten essential amino acids. Flasks were incubated for four
(§5) 200 mg. alfalfa hay, 800 mg. grain mixture (16% crude protein) and 0.8 mM

methanogenesis = test: In vivo effects upon methanogenesis in cattle; details: for Methane Inhibition: 360 kg cattle, at least 7 days
Text: Cattle were fed 5 to 7 kg./day of a 70% concentrate ration which was medicated to supply 0 to 2 g. of dithiooxamide per animal daily. After feeding medicated rations for at least 7 days, gas samples were obtained by rumen puncture for chromatographic assay of methane.
^1 360 Kg. Cattle fed either 5, 6 or 7 kg./day.

[2] = test system: volatile fatty acid production (strained rumen fluid); test: In vitro volatile fatty acid production; format: cell-based
Protocol: as §1, §2, §3, §4, §5

[3] = test system: methanogenesis (strained rumen fluid); test: In vitro effects upon methanogenesis; format: cell-based
Protocol: as §1, §2, §3, §4, §5

[4] = test system: Microbial Deaminase (strained rumen fluid); test: In vitro effects upon amino acid deamination (rumen fluid, starch, urea; 5 hours); format: cell-based
Protocol: The in vitro fermentation system contained 50 ml. strained rumen fluid, 8 mM urea, 1 g. starch, 1.8 mM of each of 10 essential amino acids (threonine, valine, methionine, isoleucine, leucine, phenylalanine, tryptophan, lysine and arginine) and 0 to 100 ppm dithiooxamide. Flasks were incubated under a CO2 atmosphere for 5 hours with total amino acids assayed prior to and at the end of the fermentation by the method of Borchers [Anal. Chem., 31, (7):1179]. Percent apparent inhibition of deamination in treated flasks was calculated relative to control flasks without added dithiooxamide. Apparent inhibition of deamination in excess of 100% may be observed because of the liberation of amino acids from proteinaceous materials contained in rumen fluid.
Inhibition of deamination (%) =
Control deamination (%) - Treated deamination (%)
Control deamination (%)
^1 In vitro fermentation system contained 50 ml. strained rumen fluid
1 g. starch, 8 mM urea and 1.8 mM of each of ten essential amino acids.
Flasks were incubated under a CO2 atmosphere for five hours.

animals = test: Toxicity statement (animals); details: when used as described
[5] = test system: gas production (strained rumen fluid); test: In vitro gas production; format: cell-based; details: Table III, control 65
Protocol: as §1, §2, §5, §4

[6] = Table III, varying concentrations of cobalt and copper

SMILES: NC(=S)C(N)=S [Dithiooxamide, dithiooxamide]
- inhibition at 5 ppm ([1]; 4 h, Table II, 5 ppm dithiooxamide, 4 h, read-out: MDI (%)): 6%
- inhibition at 10 ppm ([1]; 4 h, Table II, 10 ppm dithiooxamide, 4 h, read-out: MDI (%)): 68%
- inhibition at 25 ppm ([1]; 4 h, Table II, 25 ppm dithiooxamide, 4 h, read-out: MDI (%)): 65%
- inhibition at 50 ppm ([1]; 4 h, Table II, 50 ppm dithiooxamide, 4 h, read-out: MDI (%)): 94%
- inhibition at 25 ppm ([1]; 4 h, Table III, dithiooxamide 25 ppm, no added cobalt or copper, read-out: MDI (%)): 78%
- inhibition of microbial deamination of amino acids (in words) ([1]; Table II): effective inhibitor of microbial deamination of amino acids
- MDI (%) ([1]; Table III, dithiooxamide 25 ppm + cobalt sulfate .013 ppm): 81%
- MDI (%) ([1]; Table III, dithiooxamide 25 ppm + copper sulfate .333 ppm): 90%
- Deaminase inhibition on adding cobalt and copper (in words) [1, 6]: not affected by adding varying concentrations of cobalt and copper
- Methane Inhibition (methanogenesis; 1.0 g./day dithiooxamide in feed): 51
- Methane Inhibition (methanogenesis; 2.0 g./day dithiooxamide in feed): 85
- Methane Inhibition (methanogenesis; .5 g./day dithiooxamide in feed): 25
- antimethanogenic activity (in words) (methanogenesis; Table V): verified the antimethanogenic activity
- pattern of volatile fatty acids (in words) ([2]; Table II): increased molar percentages of propionate and butyrate at the expense of acetate
- volatile fatty acid carbon (in words) ([2]; Table II): slight decrease in volatile fatty acid carbon
- Volatile Fatty Acids (molar distribution, %): Propionate ([2]; Table II, 5 ppm dithiooxamide, 4 h, control 9): 10%
- Volatile Fatty Acids (molar distribution, %): Butyrate ([2]; Table II, 5 ppm dithiooxamide, 4 h, control 22): 24%
- Volatile Fatty Acids (molar distribution, %): Acetate ([2]; Table II, 5 ppm dithiooxamide, 4 h, control 69): 66%
- Volatile Fatty Acid Carbon ([2]; Table II, 5 ppm dithiooxamide, 4 h, control 128): 127 μ moles/ml.
- Volatile Fatty Acids (molar distribution, %): Propionate ([2]; Table II, 10 ppm dithiooxamide, 4 h, control 9): 15%
- Volatile Fatty Acids (molar distribution, %): Butyrate ([2]; Table II, 10 ppm dithiooxamide, 4 h, control 22): 36%
- Volatile Fatty Acids (molar distribution, %): Acetate ([2]; Table II, 10 ppm dithiooxamide, 4 h, control 69): 49%
- Volatile Fatty Acid Carbon ([2]; Table II, 10 ppm dithiooxamide, 4 h, control 128): 108 μ moles/ml.
- Volatile Fatty Acids (molar distribution, %): Propionate ([2]; Table II, 25 ppm dithiooxamide, 4 h, control 9): 15%
- Volatile Fatty Acids (molar distribution, %): Butyrate ([2]; Table II, 25 ppm dithiooxamide, 4 h, control 22): 36%
- Volatile Fatty Acids (molar distribution, %): Acetate ([2]; Table II, 25 ppm dithiooxamide, 4 h, control 69): 49%
- Volatile Fatty Acid Carbon ([2]; Table II, 25 ppm dithiooxamide, 4 h, control 128): 108 μ moles/ml.
- Volatile Fatty Acids (molar distribution, %): Propionate ([2]; Table II, 50 ppm dithiooxamide, 4 h, control 9): 15%
- Volatile Fatty Acids (molar distribution, %): Butyrate ([2]; Table II, 50 ppm dithiooxamide, 4 h, control 22): 38%
- Volatile Fatty Acids (molar distribution, %): Acetate ([2]; Table II, 50 ppm dithiooxamide, 4 h, control 69): 47%
- Volatile Fatty Acid Carbon ([2]; Table II, 50 ppm dithiooxamide, 4 h, control 128): 102 μ moles/ml.
- patterns of volatile fatty acid production (in words) ([2]; Table III): Alterations in patterns of volatile fatty acid production were again observed
- total volatile fatty acid carbon production (in words) ([2]; Table III): no effects on total volatile fatty acid carbon production
- Volatile Fatty Acids (molar distribution, %): Propionate ([2]; Table III, dithiooxamide 25 ppm + cobalt sulfate .013 ppm, control 15): 20%
- Volatile Fatty Acids (molar distribution, %): Butyrate ([2]; Table III, dithiooxamide 25 ppm + cobalt sulfate .013 ppm, control 21): 39%
- Volatile Fatty Acids (molar distribution, %): Acetate ([2]; Table III, dithiooxamide 25 ppm + cobalt sulfate .013 ppm, control 64): 41%
- Volatile Fatty Acid Carbon ([2]; Table III, dithiooxamide 25 ppm + cobalt sulfate .013 ppm, control 125): 127 μ moles/ml.
- Volatile Fatty Acids (molar distribution, %): Propionate ([2]; Table III, dithiooxamide 25 ppm + cobalt sulfate .066 ppm, control 15): 20%
- Volatile Fatty Acids (molar distribution, %): Butyrate ([2]; Table III, dithiooxamide 25 ppm + cobalt sulfate .066 ppm, control 21): 37%
- Volatile Fatty Acids (molar distribution, %): Acetate ([2]; Table III, dithiooxamide 25 ppm + cobalt sulfate .066 ppm, control 64): 43%
- Volatile Fatty Acid Carbon ([2]; Table III, dithiooxamide 25 ppm + cobalt sulfate .066 ppm, control 125): 133 μ moles/ml.
- Volatile Fatty Acids (molar distribution, %): Propionate ([2]; Table III, dithiooxamide 25 ppm + copper sulfate .067 ppm, control 15): 21%
- Volatile Fatty Acids (molar distribution, %): Butyrate ([2]; Table III, dithiooxamide 25 ppm + copper sulfate .067 ppm, control 21): 41%
- Volatile Fatty Acids (molar distribution, %): Acetate ([2]; Table III, dithiooxamide 25 ppm + copper sulfate .067 ppm, control 64): 38%
- Volatile Fatty Acid Carbon ([2]; Table III, dithiooxamide 25 ppm + copper sulfate .067 ppm, control 125): 114 μ moles/ml.
- Volatile Fatty Acids (molar distribution, %): Propionate ([2]; Table III, dithiooxamide 25 ppm + copper sulfate .333 ppm, control 15): 21%
- Volatile Fatty Acids (molar distribution, %): Butyrate ([2]; Table III, dithiooxamide 25 ppm + copper sulfate .333 ppm, control 21): 38%
- Volatile Fatty Acids (molar distribution, %): Acetate ([2]; Table III, dithiooxamide 25 ppm + copper sulfate .333 ppm, control 64): 41%
- Volatile Fatty Acid Carbon ([2]; Table III, dithiooxamide 25 ppm + copper sulfate .333 ppm, control 125): 132 μ moles/ml.
- Volatile Fatty Acids (molar distribution, %): Propionate ([2]; Table III, dithiooxamide 25 ppm, no added cobalt or copper, control 15): 21%
- Volatile Fatty Acids (molar distribution, %): Butyrate ([2]; Table III, dithiooxamide 25 ppm, no added cobalt or copper, control 21): 40%
- Volatile Fatty Acids (molar distribution, %): Acetate ([2]; Table III, dithiooxamide 25 ppm, no added cobalt or copper, control 64): 39%
- Volatile Fatty Acid Carbon ([2]; Table III, dithiooxamide 25 ppm, no added cobalt or copper, control 125): 119 μ moles/ml.
- methane production (in words) ([3]; Table II): would suppress methane production
- inhibition at 5 ppm ([3]; Table II, 5 ppm dithiooxamide, 4 h, read-out: Methane Inhibition (%)): 12%
- inhibition at 10 ppm ([3]; Table II, 10 ppm dithiooxamide, 4 h, read-out: Methane Inhibition (%)): 88%
- inhibition at 25 ppm ([3]; Table II, 25 ppm dithiooxamide, 4 h, read-out: Methane Inhibition (%)): 96%
- inhibition at 50 ppm ([3]; Table II, 50 ppm dithiooxamide, 4 h, read-out: Methane Inhibition (%)): 99%
- Methane Inhibition (%) ([3]; Table III, dithiooxamide 25 ppm + cobalt sulfate .066 ppm): 93%
- inhibition at 25 ppm ([3]; Table III, dithiooxamide 25 ppm, no added cobalt or copper, read-out: Methane Inhibition (%)): 92%
- methane inhibition on adding cobalt and copper (in words) [3, 6]: not affected by adding varying concentrations of cobalt and copper
- inhibition at 2.5 ppm ([4]; 2.5 ppm dithiooxamide, 5 h, 1 replication, read-out: MDI (%)): 0%
- inhibition at 5 ppm ([4]; 5 ppm dithiooxamide, 5 h, 4 replications, read-out: MDI (%)): 35%
- inhibition at 7.5 ppm ([4]; 7.5 ppm dithiooxamide, 5 h, 1 replication, read-out: MDI (%)): 71%
- inhibition at 10 ppm ([4]; 10 ppm dithiooxamide, 5 h, 4 replications, read-out: MDI (%)): 57%
- inhibition at 25 ppm ([4]; 25 ppm dithiooxamide, 5 h, 4 replications, read-out: MDI (%)): 62%
- inhibition at 50 ppm ([4]; 50 ppm dithiooxamide, 5 h, 2 replications, read-out: MDI (%)): 84%
- inhibition at 75 ppm ([4]; 75 ppm dithiooxamide, 5 h, 1 replication, read-out: MDI (%)): 100%
- inhibition at 100 ppm ([4]; 100 ppm dithiooxamide, 5 h, 1 replication, read-out: MDI (%)): 117%
- inhibition of microbial deamination of amino acids (in words) ([4]; Table I, 7.5 to 100 ppm): effective inhibitor of microbial deamination of amino acids over a wide concentration range
- toxicity (in words) (animals): relatively nontoxic
- Gas Production ([5]; dithiooxamide 25 ppm + cobalt sulfate .013 ppm): 82 cc
- Gas Production ([5]; dithiooxamide 25 ppm + cobalt sulfate .066 ppm): 86 cc
- Gas Production ([5]; dithiooxamide 25 ppm + copper sulfate .067 ppm): 85 cc
- Gas Production ([5]; dithiooxamide 25 ppm + copper sulfate .333 ppm): 83 cc
- Gas Production ([5]; dithiooxamide 25 ppm, no added cobalt or copper): 85 cc
